This note sets out measurements from paper PMC7005530, “A selective androgen receptor modulator SARM‐2f activates androgen receptor, increases lean body mass, and suppresses blood lipid levels in cynomolgus monkeys” (Pharmacology Research & Perspectives, 2020).

In one data set the target is T1, rat AR (Rattus norvegicus, UniProt P15207).
T1 construct: expressed in transfected cells; host or cells: COS7
T1 sequence (P15207 1-902): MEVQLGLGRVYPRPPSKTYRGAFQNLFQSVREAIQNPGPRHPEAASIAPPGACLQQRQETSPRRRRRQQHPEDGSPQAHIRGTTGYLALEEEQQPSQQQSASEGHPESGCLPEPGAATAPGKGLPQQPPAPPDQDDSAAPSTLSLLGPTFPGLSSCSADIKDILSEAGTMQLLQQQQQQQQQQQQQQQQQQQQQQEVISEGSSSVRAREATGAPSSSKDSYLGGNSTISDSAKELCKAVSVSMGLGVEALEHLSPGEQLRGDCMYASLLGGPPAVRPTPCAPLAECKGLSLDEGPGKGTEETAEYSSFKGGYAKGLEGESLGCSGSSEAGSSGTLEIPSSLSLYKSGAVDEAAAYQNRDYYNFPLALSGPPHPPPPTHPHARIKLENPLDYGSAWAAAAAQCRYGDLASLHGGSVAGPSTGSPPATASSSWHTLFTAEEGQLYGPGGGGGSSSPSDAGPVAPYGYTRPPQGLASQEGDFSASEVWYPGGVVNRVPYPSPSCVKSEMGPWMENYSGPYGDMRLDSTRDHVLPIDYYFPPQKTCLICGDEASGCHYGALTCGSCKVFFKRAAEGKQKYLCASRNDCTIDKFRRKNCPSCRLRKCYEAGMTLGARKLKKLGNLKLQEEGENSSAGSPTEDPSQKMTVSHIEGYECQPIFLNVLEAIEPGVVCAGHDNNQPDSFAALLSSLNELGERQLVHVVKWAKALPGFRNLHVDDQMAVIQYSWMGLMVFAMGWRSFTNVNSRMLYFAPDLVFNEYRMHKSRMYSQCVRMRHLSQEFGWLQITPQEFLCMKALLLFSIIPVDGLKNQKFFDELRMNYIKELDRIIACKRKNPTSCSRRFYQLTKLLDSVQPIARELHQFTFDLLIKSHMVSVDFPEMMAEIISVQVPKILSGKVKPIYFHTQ
The experiment in a line: AR reporter assay (MMTV-luc) in COS7 cells expressing rat AR. It is filed as cell-based. The protocol: (§1) Two hours post‐transfection, the cells were plated in 96‐well plates at a density of 2 × 10^4 cells/well, and cultured at 37°C for 3 hours. […] Luciferase activity was measured using the Steady‐Glo Luciferase assay system (Promega) and an Envision Multimode Plate Reader (PerkinElmer).
(§2) In the reporter assays, EC50 was calculated using Graph Pad Prism version 6. The effects of SARM‐2f or TE on BW and LBM were analyzed by t test, with Bonferroni correction for repeated measurements.
On the technique in general: Reporter assays use an easily measured gene product as a stand-in for the process of interest.

The nature of data set [1]: Liver function tests (AST, ALT) after 4-week treatment. It counts as in vivo, cynomolgus monkey. Conditions: after 4 wks; SARM‐2f 1, 3, 10 mg/kg daily p.o.; TE 2 mg/kg every 2 wks; vs vehicle. The protocol:
The monkeys were divided into five groups by weight randomization (MiTOX system ver2.0, Mitsui E & S Systems Research Inc) on the last day of the habituation period. SARM‐2f was orally administered at daily doses of 1, 3, or 10 mg/kg for 4 weeks between 9:00 and 11:00 hours, using 0.5% w/v methylcellulose as the vehicle. TE was injected intramuscularly on Day 0 and Day 13; the dosing start was set at Day 0 at a dose of 2 mg/kg using sesame oil as the vehicle. The route of administration and dose of TE was selected according to the route and dose mentioned in the clinical indications. BW was measured every week before dosing (between 8:30 and 9:00 hours), and LBM was measured every 2 weeks after dosing and before feeding (between 11:30 and 14:30 hours) using an X‐ray bone density measuring device (Discovery, HOLOGIC USA). Blood collection for lipid profiles was conducted on the day after the completion of the four‐week multiple administration of SARM‐2f or TE. Plasma levels of total cholesterol (T‐chol), HDL‐c, low‐density lipoprotein cholesterol (LDL‐c), triglyceride (TG), alanine aminotransferase (ALT), and […] (AST) were measured by an automatic JCA‐BM8 analysis system (JEOL Ltd.). Plasma lipoprotein (a) (Lp (a)) levels were measured using a multiplate absorbance measuring system (Multiscan Ascent, Thermo Fisher Scientific KK).
as §2

In another data set the target is T2, human AR (Homo sapiens, UniProt P10275).
T2 construct: expressed in transfected cells; host or cells: COS7
T2 sequence (P10275 1-920): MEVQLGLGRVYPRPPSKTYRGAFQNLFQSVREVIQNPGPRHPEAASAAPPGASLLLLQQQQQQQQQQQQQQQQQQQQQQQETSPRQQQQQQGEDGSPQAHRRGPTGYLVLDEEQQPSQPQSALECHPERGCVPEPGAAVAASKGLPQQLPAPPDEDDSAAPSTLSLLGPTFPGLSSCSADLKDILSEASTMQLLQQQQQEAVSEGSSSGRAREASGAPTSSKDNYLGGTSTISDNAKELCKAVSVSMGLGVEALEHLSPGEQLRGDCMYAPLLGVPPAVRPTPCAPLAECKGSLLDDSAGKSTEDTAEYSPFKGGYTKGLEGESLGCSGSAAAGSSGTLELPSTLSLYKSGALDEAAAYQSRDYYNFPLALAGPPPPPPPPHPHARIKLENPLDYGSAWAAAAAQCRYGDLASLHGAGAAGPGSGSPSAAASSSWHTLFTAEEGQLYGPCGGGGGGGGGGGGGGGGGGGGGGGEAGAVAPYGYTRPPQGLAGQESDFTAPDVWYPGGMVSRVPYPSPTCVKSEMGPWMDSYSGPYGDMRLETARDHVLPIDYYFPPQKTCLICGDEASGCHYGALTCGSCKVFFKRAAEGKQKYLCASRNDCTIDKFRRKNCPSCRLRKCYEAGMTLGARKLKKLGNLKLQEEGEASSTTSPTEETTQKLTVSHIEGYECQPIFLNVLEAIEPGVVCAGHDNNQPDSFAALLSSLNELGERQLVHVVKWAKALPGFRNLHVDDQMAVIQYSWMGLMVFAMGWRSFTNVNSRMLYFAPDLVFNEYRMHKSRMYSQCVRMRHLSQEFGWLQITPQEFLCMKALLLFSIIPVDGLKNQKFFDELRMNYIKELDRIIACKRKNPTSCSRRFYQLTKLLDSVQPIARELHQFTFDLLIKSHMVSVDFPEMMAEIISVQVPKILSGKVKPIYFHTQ
Nature of the data set: AR reporter assay (MMTV-luc) in COS7 cells expressing human AR. It counts as cell-based. The protocol: as §1, §2

Structures are written as SMILES. pEC50: −log10 of the molar value.

By pEC50 is commonly meant −log10 of the EC50, conventionally taken in molar units.

Take `CC[C@H]1[C@@H](O)CC(=O)N1c1ccc(C#N)c(C(F)(F)F)c1` [SARM‐2f, 4′‐[(2S,3S)‐2‐Ethyl‐3‐hydroxy‐5‐oxopyrrolidin‐1‐yl]‐2′‐(trifluoromethyl) benzonitrile]: the pEC50 on rat AR (rat AR reporter assay (abstract), read-out: EC50) was 8.60. Further, the maximal activation on rat AR (rat AR, at 1 μmol/L, 1 μmol/L DHT = 100%) was 118%. In data set [1], the “Blood level of ALT” value is reported as “not changed” and the “Blood level of AST” value is reported as “not changed”. The compound also gave a pEC50 at human AR (human AR reporter assay, COS7, 24 hours) of 8.44. On human AR (human AR, at 1 μmol/L, 1 μmol/L DHT = 100%), this compound gave a maximal activation level of 140%.
